Test results as given in ChEMBL document CHEMBL4483862, “Open-source discovery of chemical leads for next-generation chemoprotective antimalarials” (2018).

Test system: Plasmodium berghei
Assay: Luciferase/luciferin-expressing antifolate-resistant parasites were used to infect a culture of HepG2 cells that were pre-incubated with compounds. Infected hepatocytes emit light due to the luciferase reaction. Assay results are presented as the percent inhibition of light emission compared to control. […]
Format: functional
Details: sporozoite; for IC90: read-out: LUCIFERASE INFECTION ASSAY - IC90
[1] = read-out: LUCIFERASE INFECTION ASSAY - IC50

Structure (SMILES) | IC90 | also measured
CNC(=O)c1ccc(CN(Cc2ccco2)c2nc(C(F)(F)F)nc3ccccc23)cc1 | 3.56 µM | IC50 (HEPG2TOX_HILL_SLOPE 6.45, HEPG2TOX_R_SQUARED 0.103, PBLUC_HILL_SLOPE 3.77, PBLUC_R_SQUARED 0.847, read-out: LUCIFERASE INFECTION ASSAY - IC50): 1.99 µM
Cc1nc2c(C)cccn2c1C(=O)NN1C(=O)CSC1c1ccccc1 (stereo not given) | > 8 µM | IC50 [1]: 7.23 µM
CCC(C)(C)c1ccc(OCC(=O)Nc2ccc(Cl)c(N)c2)c(C(C)(C)CC)c1 | 3.07 µM | IC50 (FFLUC_HILL_SLOPE 11.8, FFLUC_R_SQUARED 0.0263, PBLUC_HILL_SLOPE 15.2, PBLUC_R_SQUARED 0.794, read-out: LUCIFERASE INFECTION ASSAY - IC50): 2.66 µM
CC(C)Nc1ccc(Nc2ccccc2)cc1 | 3.79 µM | IC50 (HEPG2TOX_HILL_SLOPE 3.79, HEPG2TOX_R_SQUARED 0.984, PBLUC_HILL_SLOPE 20.8, PBLUC_R_SQUARED 0.712, read-out: LUCIFERASE INFECTION ASSAY - IC50): 3.41 µM
CC(C)(C)c1cc(NC(=O)COc2ccc3[nH]c4ccccc4c(=O)c3c2)n(-c2ccccc2)n1 | 0.752 µM | IC50 (FFLUC_HILL_SLOPE 14.6, FFLUC_R_SQUARED 0.0178, PBLUC_HILL_SLOPE 1.61, PBLUC_R_SQUARED 0.936, read-out: LUCIFERASE INFECTION ASSAY - IC50): 0.192 µM
O=C1C=CC(=O)N1c1cccc(N2C(=O)C=CC2=O)c1 | > 12.3 µM | IC50 (PBLUC_HILL_SLOPE 9.05, PBLUC_R_SQUARED 0.121, read-out: LUCIFERASE INFECTION ASSAY - IC50): 11.2 µM
Cn1ccc2cc(-c3cnc4cnc(-c5ccc(C(=O)NCCO)cc5)cn34)ccc21 | 7.65 µM | IC50 [1]: 6.16 µM
FC(F)(F)c1nc2ccccc2n1-c1cc(-c2ccccc2)n[nH]1 | > 10 µM | IC50 (HEPG2TOX_HILL_SLOPE 5.49, HEPG2TOX_R_SQUARED 0.606, read-out: LUCIFERASE INFECTION ASSAY - IC50): > 10 µM
CC(NC(=O)Cc1ccc(-c2ccccc2)cc1)c1cccs1 (stereo not given) | 9.4 µM | IC50 (HEPG2TOX_HILL_SLOPE 1.66, HEPG2TOX_R_SQUARED 0.927, PBLUC_HILL_SLOPE 1.26, PBLUC_R_SQUARED 0.823, read-out: LUCIFERASE INFECTION ASSAY - IC50): 1.64 µM
COc1cc(NS(=O)(=O)c2ccc(C)cc2)c(OC)cc1Cl | 3.66 µM | IC50 [1]: 2.01 µM
COc1cc2c(cc1/C=C/C(=O)N(Cc1nc(=O)c3ccccc3[nH]1)CC1CCCO1)OC(C)C2 (stereo not given) | > 10 µM | IC50 [1]: > 10 µM
COc1cc(C(F)(F)F)nc2ccc(C#CCOC(=O)c3ccccc3Cl)cc12 | > 7.86 µM | IC50 [1]: > 7.86 µM
NC(=O)N1CC=C(c2ccc(Oc3ncnc4sccc34)cc2)CC1 | > 2 µM | IC50 [1]: > 2 µM
O=C(Nc1cccc(Cl)c1)Nc1ccc2nc(-c3ccncc3)nn2c1 | 3.69 µM | IC50 (PBLUC_HILL_SLOPE 15.9, PBLUC_R_SQUARED 0.357, read-out: LUCIFERASE INFECTION ASSAY - IC50): 3.21 µM
Cc1ccc(/C(C#N)=C/c2ccc3c(c2)OCO3)cc1 | > 12.5 µM | IC50 (HEPG2TOX_HILL_SLOPE 2.41, HEPG2TOX_R_SQUARED 0.881, PBLUC_HILL_SLOPE 2.57, PBLUC_R_SQUARED 0.299, read-out: LUCIFERASE INFECTION ASSAY - IC50): 9.11 µM
CCCN1CCc2nc(NCc3ccc(Cl)c(Cl)c3)ncc2C1 | > 9.39 µM | IC50 [1]: 5.58 µM
N#C/C=C/C=C/c1nnn(-c2ccc(Cl)cc2)n1 | 12.6 µM | IC50 (PBLUC_HILL_SLOPE 14.5, PBLUC_R_SQUARED 0.28, read-out: LUCIFERASE INFECTION ASSAY - IC50): 10.9 µM
CCOc1ccc(C(C)NC(=O)c2nc(SC)ncc2Cl)cc1 (stereo not given) | 4.29 µM | IC50 (HEPG2TOX_HILL_SLOPE 16.5, HEPG2TOX_R_SQUARED 0.52, PBLUC_HILL_SLOPE 11.3, PBLUC_R_SQUARED 0.138, read-out: LUCIFERASE INFECTION ASSAY - IC50): 3.53 µM
O=C(c1cnc2cc3c(cc2c1)OCCO3)c1cc(F)ccc1O | 2.41 µM | IC50 (HEPG2TOX_HILL_SLOPE 1.24, HEPG2TOX_R_SQUARED 0.963, PBLUC_HILL_SLOPE 1.6, PBLUC_R_SQUARED 0.807, read-out: LUCIFERASE INFECTION ASSAY - IC50): 0.612 µM
Cc1cc(C)c(S(=O)(=O)Nc2cc(C)nn2-c2ccccn2)c(C)c1 | 3.28 µM | IC50 (HEPG2TOX_HILL_SLOPE 1.93, HEPG2TOX_R_SQUARED 0.937, PBLUC_HILL_SLOPE 16.1, PBLUC_R_SQUARED 0.725, read-out: LUCIFERASE INFECTION ASSAY - IC50): 2.86 µM

Structure (SMILES) | IC90 | also measured
O=C(/C=C/c1ccc(-c2ccccc2Cl)s1)N1CCN(c2ncccn2)CC1 | > 10 µM | IC50 (HEPG2TOX_HILL_SLOPE 11.1, HEPG2TOX_R_SQUARED 0.736, PBLUC_HILL_SLOPE 11.3, PBLUC_R_SQUARED 0.239, read-out: LUCIFERASE INFECTION ASSAY - IC50): 9.23 µM
CSc1c(C#N)c(-c2cc(C(C)(C)C)oc2C)nn1-c1ccc(I)cc1 | > 6.91 µM | IC50 (FFLUC_HILL_SLOPE 0.81, FFLUC_R_SQUARED 0.431, read-out: LUCIFERASE INFECTION ASSAY - IC50): > 6.91 µM
Fc1ccc(CSc2nnnn2-c2ccc3c(c2)OCO3)c(Cl)c1 | 8.12 µM | IC50 (HEPG2TOX_HILL_SLOPE 1.94, HEPG2TOX_R_SQUARED 0.929, PBLUC_HILL_SLOPE 1.23, PBLUC_R_SQUARED 0.52, read-out: LUCIFERASE INFECTION ASSAY - IC50): 1.37 µM
COc1ccc(CNCC(O)COc2ccc(C(C)(C)C)cc2C)cc1OC (stereo not given) | 10 µM | IC50 (HEPG2TOX_HILL_SLOPE 9.88, HEPG2TOX_R_SQUARED 0.866, PBLUC_HILL_SLOPE 15, PBLUC_R_SQUARED 0.0695, read-out: LUCIFERASE INFECTION ASSAY - IC50): 8.63 µM
CC(=O)c1ccccc1NC(=O)CNc1ccccc1N(C)Cc1ccccc1 | > 10 µM | IC50 (PBLUC_HILL_SLOPE 3.51, PBLUC_R_SQUARED 0.275, read-out: LUCIFERASE INFECTION ASSAY - IC50): 8.09 µM
O=C(NC(c1ccc(F)cc1)c1cccs1)c1cc2ccccc2o1 (stereo not given) | > 10 µM | IC50 [1]: > 10 µM
CCOc1ccc(-c2nnc(SCc3csc(Nc4ccc(C)cc4)n3)n2-c2ccccc2F)cc1 | > 10 µM | IC50 (HEPG2TOX_HILL_SLOPE 1.93, HEPG2TOX_R_SQUARED 0.706, PBLUC_HILL_SLOPE 2.19, PBLUC_R_SQUARED 0.586, read-out: LUCIFERASE INFECTION ASSAY - IC50): 5.29 µM
CCOc1ncccc1C(=O)NCC(c1ccc(OC)cc1)N1CCCCC1 (stereo not given) | > 10 µM | IC50 [1]: > 10 µM
CC1(C)C2CC=C(/C=N/NC(=O)Cn3c(C(F)(F)F)nc4ccccc43)C1C2 (stereo not given) | > 10 µM | IC50 (PBLUC_HILL_SLOPE 3.28, PBLUC_R_SQUARED 0.493, read-out: LUCIFERASE INFECTION ASSAY - IC50): 6.15 µM
CCOC(=O)c1c(C)[nH]c(C(=O)C(C)OC(=O)c2ccc(S(=O)(=O)N(C)c3ccccc3OC)cc2)c1C (stereo not given) | > 10 µM | IC50 (HEPG2TOX_HILL_SLOPE 113, HEPG2TOX_R_SQUARED 0.62, read-out: LUCIFERASE INFECTION ASSAY - IC50): > 10 µM
CN1CCN(c2ccc(-c3cn4c(-c5ccc(O)cc5)cnc4cn3)cc2)CC1 | > 8.56 µM | IC50 (FFLUC_HILL_SLOPE 7.73, FFLUC_R_SQUARED 0.293, read-out: LUCIFERASE INFECTION ASSAY - IC50): > 8.56 µM
Cc1cc(N2CCN(C)CC2)n2ncc(-c3ccc(F)cc3)c2n1 | > 10.1 µM | IC50 (PBLUC_HILL_SLOPE 0.664, PBLUC_R_SQUARED 0.928, read-out: LUCIFERASE INFECTION ASSAY - IC50): 0.571 µM
CC(C)Cn1c(-c2ccccc2F)nc2c(c(=O)c3ccccc3n2C)c1=O | 7.64 µM | IC50 (PBLUC_HILL_SLOPE 4.02, PBLUC_R_SQUARED 0.715, read-out: LUCIFERASE INFECTION ASSAY - IC50): 4.42 µM
CN1CCN(c2ccccc2/C=N\Nc2cc(Cl)ccc2Cl)CC1 | > 9.08 µM | IC50 (PBLUC_HILL_SLOPE 2.04, PBLUC_R_SQUARED 0.6, read-out: LUCIFERASE INFECTION ASSAY - IC50): 3.92 µM
COc1cc(NC(=O)c2ccc([N+](=O)[O-])o2)cc(C(F)(F)F)c1 | > 9.99 µM | IC50 [1]: > 9.99 µM
Cc1nc(Nc2ccc(C(=O)N(C)C)cc2)c2c(-c3ccccc3)csc2n1 | 8.69 µM | IC50 (FFLUC_HILL_SLOPE 16.2, FFLUC_R_SQUARED 0.398, PBLUC_HILL_SLOPE 15.9, 4.17, PBLUC_R_SQUARED 0.757, 0.868, read-out: LUCIFERASE INFECTION ASSAY - IC50): 7.45 µM
Cn1cnnc1Sc1ccc(/C=C/c2nc3ccccc3[nH]2)cc1[N+](=O)[O-] | 3.92 µM | IC50 (PBLUC_HILL_SLOPE 13.5, PBLUC_R_SQUARED 0.706, read-out: LUCIFERASE INFECTION ASSAY - IC50): 3.33 µM
O=C(Nc1ccc(Cl)cc1)/C(=C/c1ccc([N+](=O)[O-])cc1)c1nc2ccccc2s1 | > 10 µM | IC50 (PBLUC_HILL_SLOPE 3.91, PBLUC_R_SQUARED 0.341, read-out: LUCIFERASE INFECTION ASSAY - IC50): 7.67 µM
Cc1ccc(-n2c(SCC(=O)N3c4ccc(S(N)(=O)=O)cc4CC3C)nc3ccccc32)cc1 (stereo not given) | > 10 µM | IC50 (FFLUC_HILL_SLOPE 2.97, FFLUC_R_SQUARED 0.377, PBLUC_HILL_SLOPE 1.55, PBLUC_R_SQUARED 0.53, read-out: LUCIFERASE INFECTION ASSAY - IC50): 5.31 µM
c1cncc(-c2nc(NCc3ccnc(N4CCCC4)c3)c3ccccc3n2)c1 | > 10 µM | IC50 (HEPG2TOX_HILL_SLOPE 5.98, HEPG2TOX_R_SQUARED 0.222, PBLUC_HILL_SLOPE 14.9, PBLUC_R_SQUARED 0.594, read-out: LUCIFERASE INFECTION ASSAY - IC50): 9.31 µM
